Measurements taken from patent publication US20230227484A1, “PYRIMIDINE COMPOUND AS AXL INHIBITOR” (NANJING CHIA TAI TIANQING PHARMACEUTICAL CO., LTD., priority 2020, published 2023).

Each compound was assayed against T1, AXL kinase (Homo sapiens, UniProt P30530) (assay: Inhibitory activity of compound against AXL kinase (HTRF KinEASE)). Settings: AXL enzyme (Carna, 08-107), ATP 15 μM; "<" means below detection limit of the test.
T1 construct: purchased Carna 08-107
T1 sequence (P30530 473-894 limits assumed): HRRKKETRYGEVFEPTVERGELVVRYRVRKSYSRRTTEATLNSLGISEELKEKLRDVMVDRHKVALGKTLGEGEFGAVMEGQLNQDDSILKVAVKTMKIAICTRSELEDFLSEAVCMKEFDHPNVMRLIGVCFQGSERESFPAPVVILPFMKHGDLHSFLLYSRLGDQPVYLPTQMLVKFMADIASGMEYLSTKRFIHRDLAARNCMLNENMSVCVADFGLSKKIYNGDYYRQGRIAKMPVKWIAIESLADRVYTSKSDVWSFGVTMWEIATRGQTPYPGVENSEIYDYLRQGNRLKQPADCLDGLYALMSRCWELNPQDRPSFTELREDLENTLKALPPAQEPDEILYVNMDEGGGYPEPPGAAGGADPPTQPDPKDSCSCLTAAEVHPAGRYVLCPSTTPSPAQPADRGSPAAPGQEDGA
Format: biochemical
Method in brief: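 AXL enzyme (final 0.016 ng/uL) was preincubated with compound (8 concentrations from 1 μM, ½ log steps) for 15 min at room temperature, then reacted with TK Substrate 3-biotin (final 1) and ATP (final 15 μM) for 45 min at 25° C. Phosphorylation was read by HTRF (TK antibody-cryptate, streptavidin-XL665, 1 h); IC50 from variable-slope dose-response fit.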
Work on `CNC(=O)c1cc(F)ccc1Nc1nc(Nc2ccc3c(c2)CC[C@@H](N2CCCC2)CC3)ncc1Cl` [Example 19, (S)-2-((5-chloro-2-((7-(pyrrolidin-1-yl)-6,7,8,9-tetrahydro-5H-benzo[7]annulen-2-yl)amino)pyrimidin-4-yl)amino)-5-fluoro-N-methylhenzamide] yielded an IC50 of 0.11 nM.
With `COCc1ccc(Nc2nc(Nc3ccc4c(c3)CC[C@@H](N3CCCC3)CC4)ncc2Cl)c(P(C)(C)=O)c1` [Example 115, (S)-(2-((5-chloro-2-((7-(pyrrolidin-1-yl)-6,7,8,9-tetrahydro-5H-benzo[7]annulen-2-yl)amino)pyrimidin-4-yl)amino)-5-(methoxymethyl)phenyl)dimethylphosphine oxide] the IC50 was 4.89 nM.
`Cc1ccc(Nc2nc(Nc3ccc4c(c3)CC[C@@H](N3CCCC3)CC4)ncc2Cl)c(P(C)(C)=O)c1` [Example 53, (S)-(2-((5-chloro-2-((7-(pyrrolidin-1-yl)-6,7,8,9-tetrahydro-5H-benzo[7]annulen-2-yl)amino)pyrimidin-4-yl)amino)-5-methylphenyl) dimethyl phosphine oxide] gave an IC50 of 1.86 nM.
Work on `CP(C)(=O)c1ccccc1Nc1nc(Nc2ccc3c(c2)CC[C@@H](N2CCCC2)CC3)ncc1Cl` [Example 10, (S)-(2-((5-chloro-2-((7-(pyrrolidin-1-yl)-6,7,8,9-tetrahydro-5H-benzo[7]annulen-2-yl)amino)pyrimidin-4-yl)amino)phenyl)dimethyl phosphine oxide] yielded an IC50 of 2.35 nM.
`CP(C)(=O)c1c(Nc2nc(Nc3ccc4c(c3)CC[C@@H](N3CCCC3)CC4)ncc2Cl)ccc2nccnc12` [Example 47, (S)-(6-((5-chloro-2-((7-(pyrrolidin-1-yl)-6,7,8,9-tetrahydro-5H-benzo[7]annulen-2-yl)amino)pyrimidin-4-yl)amino)quinoxalin-5-yl)dimethyl phosphine oxide] gave an IC50 of 1.72 nM.
